{"source": "patent US9364496B2", "about": "(ONCOGENEX TECHNOLOGIES INC., priority 2013, dated 2016)", "key": {"[1]": {"conditions": "cited from earlier work"}, "[2]": {"experiment": "Randomized Phase 2 Study OGX-011-03, custirsen plus docetaxel vs docetaxel", "conditions": "per arm"}, "[3]": {"system": "RPMI 8226 (human myeloma) xenograft", "experiment": "In vivo activity of custirsen with Velcade, RPMI 8226 xenograft (Example 14)", "conditions": "for efficacy (tumor growth), in words: Velcade 0.5 mg/kg iv; for Day 27 Δ volume / Day 34 Δ volume / Day 41 Δ volume / Day 45 Δ volume: vs Day 20", "protocol": "The cells were implanted subcutaneously into female SCID mice with 7×10^6 cells inoculum.\nTumors and body weights were measured weekly until termination of the study on day 71. Response to treatment was evaluated for tumor growth inhibition (TGI) and tumor growth delay (TGD).\n70 CB.17 SCID female mice, 4-6 weeks old, 16-20 grams, obtained from Harlan animal breeding center.\nSample from the cell suspension was taken for counting (0.3 ml in duplicates for CEDEX) before spun down. Cell viability was 85.6% and live cell concentration was 167×10^5 cells/ml. The pellet was resuspended in HBSS to a final volume of 8 ml.\nTumors were implanted subcutaneously with RPMI-8226 cells into the right flank of the mouse on Day 0. Each animal received a s.c. injection 7×10^6 cells in 0.1 ml suspension. On day 20, mice were sorted by the optimal tumor volume ([…]) and were allocated into 5 groups of 10 mice. Mice were individually tagged and their tumor volume and body weight were monitored weekly during the study. Tumor size was measured by caliper and calculated using the formula: […]\nThe treatment started on […] (0.2 ml per 20 grams v/w) and continued till day 52, after which the remaining mice were left for observation until day 71."}, "[4]": {"conditions": "Velcade 0.5 mg/kg iv biwk, Day 48, individual mice"}, "[5]": {"conditions": "Velcade 0.5 mg/kg iv biwk, Day 51, group mean"}, "[6]": {"conditions": "Velcade 0.5 mg/kg iv biwk, Day 51, individual mice"}, "[7]": {"conditions": "Velcade 0.5 mg/kg iv biwk, day 51"}, "[8]": {"conditions": "Velcade 0.5 mg/kg iv biwk, earlier day (day not given), group mean, tumor"}, "[9]": {"conditions": "Velcade 0.5 mg/kg iv biwk, earlier day (day not given), individual mouse, tumor"}, "[10]": {"conditions": "Velcade 0.5 mg/kg iv biwk, group Mean, n 10"}, "[11]": {"conditions": "Velcade 0.5 mg/kg iv biwk, individual mouse"}, "[12]": {"conditions": "Velcade 0.5 mg/kg iv biwk, later day (day not given), group mean, tumor"}, "[13]": {"conditions": "Velcade 0.5 mg/kg iv biwk, later day (day not given), individual mouse, tumor"}}, "note": "“And” between values parts separate entries of the source, which are not always exact repeats. Equal values may be shown once. “Also recorded” adds a separate entry of the source. Read-outs that look alike come from different tables or passages of the source.", "data": [{"compound": "CC(=O)O[C@@]12CO[C@@H]1C[C@H](O)[C@@]1(C)C(=O)[C@H](O)C3=C(C)[C@@H](OC(=O)[C@H](O)[C@@H](NC(=O)OC(C)(C)C)c4ccccc4)C[C@@](O)([C@@H](OC(=O)c4ccccc4)[C@H]21)C3(C)C", "note": "[Docetaxel]", "values": [{"measurement": "grade 4 neutropenia (<500 cells/mm^3), patients", "setting": "[1]; 60 mg/m^2", "value": 75, "unit": "%"}, {"measurement": "grade 4 neutropenia (<500 cells/mm^3), patients", "setting": "[1]; 100 mg/m^2", "value": 85, "unit": "%"}, {"measurement": "neutropenia (<2,000 neutrophils/mm3), occurrence", "setting": "[1]; 60-100 mg/m^2", "value": "virtually all patients"}, {"measurement": "incidence of elevated creatinine (primarily grade 1/2)", "setting": "[2]", "value": 5, "unit": "%"}]}, {"compound": "CC(C)C[C@H](NC(=O)[C@H](Cc1ccccc1)NC(=O)c1cnccn1)B(O)O", "note": "[Velcade®, Bortezomib, reference compound]", "values": [{"measurement": "efficacy (tumor growth), in words", "setting": "[3]", "value": "moderate but not statistically significant efficacy; also recorded: moderate and not statistically significant effect"}, {"measurement": "volume", "setting": "[3]; Velcade 0.5 mg/kg iv biwk, Day 48, group mean", "value": 749.8}, {"measurement": "volume", "setting": "[3]; [4]", "value": "520 and 868 and 757 and 647 and 687 and 470 and 1151 and 789"}, {"measurement": "Δ volume", "setting": "[3]; [4]", "value": "401.6 and 745.2 and 624.2 and 508.9 and 919.1 and 403.8 and 310.7 and 988.8 and 625.7"}, {"measurement": "volume", "setting": "[3]; [5]", "value": 1027.5}, {"measurement": "Δ volume", "setting": "[3]; [5]", "value": 884.2}, {"measurement": "volume", "setting": "[3]; [6]", "value": "767 and 1043 and 1313 and 774 and 1432 and 917 and 1635 and 1195"}, {"measurement": "Δ volume", "setting": "[3]; [6]", "value": "648.2 and 920.6 and 1179.9 and 636.4 and 1291.7 and 474.1 and 768.2 and 418.7 and 1473.4 and 1031.3"}, {"measurement": "% TGI day 51", "setting": "[3]; [7]", "value": 28, "unit": "%"}, {"measurement": "No. of CR", "setting": "[3]; [7]", "value": 0}, {"measurement": "No. of PR", "setting": "[3]; [7]", "value": 0}, {"measurement": "No. of TRD", "setting": "[3]; [7]", "value": 0}, {"measurement": "No. og nTRD", "setting": "[3]; [7]", "value": 0}, {"measurement": "Δ mean tumor volume, (mean ± se)", "setting": "[3]; [7]", "value": "884 ± 356"}, {"measurement": "volume", "setting": "[3]; [8]", "value": 1366.1}, {"measurement": "Δ volume", "setting": "[3]; [8]", "value": 1224.9}, {"measurement": "volume", "setting": "[3]; [9]", "value": "1019 and 1659 and 1885 and 779 and 2196 and 721 and 1500 and 885 and 1651"}, {"measurement": "Δ volume", "setting": "[3]; [9]", "value": "900.3 and 1536.1 and 1752.5 and 640.9 and 2055.5 and 1351.3 and 724.9 and 1487.1"}, {"measurement": "Day 20 volume", "setting": "[3]; [10]", "value": 143.2}, {"measurement": "Day 27 volume", "setting": "[3]; [10]", "value": 213.1}, {"measurement": "Day 34 volume", "setting": "[3]; [10]", "value": 251.6}, {"measurement": "Day 41 volume", "setting": "[3]; [10]", "value": 422.8}, {"measurement": "Day 27 Δ volume", "setting": "[3]; [10]", "value": 69.9}, {"measurement": "Day 34 Δ volume", "setting": "[3]; [10]", "value": 108.3}, {"measurement": "Day 41 Δ volume", "setting": "[3]; [10]", "value": 279.5}, {"measurement": "Day 45 Δ volume", "setting": "[3]; [10]", "value": 431.8}, {"measurement": "Day 20 volume", "setting": "[3]; [11]", "value": "133 and 138 and 141 and 145 and 149 and 160 and 162 and 164"}, {"measurement": "Day 27 volume", "setting": "[3]; [11]", "value": "225 (2×) and 260 and 235 and 253 and 206 and 231 and 149 and 185 and 162"}, {"measurement": "Day 34 volume", "setting": "[3]; [11]", "value": "185 and 232 and 255 and 286 and 266 and 285 and 272 and 162 and 343 and 230"}, {"measurement": "Day 41 volume", "setting": "[3]; [11]", "value": "289 and 481 and 501 and 387 and 491 and 443 and 475 and 269 and 528 and 384"}, {"measurement": "Day 45 volume", "setting": "[3]; [11]", "value": "430 and 667 and 507 and 733 and 495 and 663 and 351 and 744"}, {"measurement": "Day 27 Δ volume", "setting": "[3]; [11]", "value": "137.0 and 102.2 and 115.3 and 65.3 and 85.8 and −0.6 and 25.6 and 63.7 and −2.2"}, {"measurement": "Day 34 Δ volume", "setting": "[3]; [11]", "value": "66.0 and 109.0 and 148.3 and 140.0 and 2.9 and 181.4 and 65.9"}, {"measurement": "Day 41 Δ volume", "setting": "[3]; [11]", "value": "170.3 and 358.8 and 368.2 and 249.1 and 349.9 and 297.3 and 325.8 and 109.0 and 366.6 and 200.2"}, {"measurement": "Day 45 Δ volume", "setting": "[3]; [11]", "value": "311.5 and 488.4 and 368.7 and 350.1 and 514.1 and 191.8 and 374.8"}, {"measurement": "volume", "setting": "[3]; [12]", "value": 1236.8}, {"measurement": "Δ volume", "setting": "[3]; [12]", "value": 1096.4}, {"measurement": "volume", "setting": "[3]; [13]", "value": "1484 and 881 and 1166 and 1417"}, {"measurement": "Δ volume", "setting": "[3]; [13]", "value": "1365.3 and 742.6 and 1020.7 and 1257.1"}, {"measurement": "efficacy (tumor growth), in words", "setting": "[3]; listed as Velcade", "value": "moderate"}]}]}
